Experimental data taken from patent publication US20050026994A1, “Use of 2, 4diamino-3-hydroxycarboxylic acid derivatives as proteasome inhibitors” (priority 2000, published 2005).

These compounds were tested against T1, purified human placenta 20S proteasome (Homo sapiens, UniProt P28074) (assay: Inhibition of the chymotrypsin-like activity of the 20S proteasome (Suc-LLVY-AMC hydrolysis, fluorescence)). Settings: substrate Suc-LLVY-AMC 80 μM, 60 min preincubation at room temperature, incubation 3-24 h at 37° C.
T1 construct: purified human placenta 20S proteasome; tissue Diabetes Forschungsinstitut, Düsseldorf, Germany; host or cells: human placenta
Type: biochemical
Experimental: It is based on the hydrolysis of the fluorogenic peptide Suc-LLVY-AMC (Succinyl-leucine-leucine-valine-tyrosine-7-amino-4-methylcoumarin), which is cleaved exclusively at the Y-AMC bond by the 20S proteasome. Hydrolysis of this peptide is accompanied by an increase in fluorescence intensity (λex355 nm, λem460 nm) due to release of the […] that accompanies diffusion apart of the hydrolysis product Suc-LLVY.
2 μl of a 1 mM solution of a test compound in DMSO (dimethylsulfoxide, 20 μM final concentration in the well) are preincubated for 60 min at room temperature in black 96-well microtiter plates together with a mixture of 1 μl purified human placenta 20S proteasome (Diabetes Forschungsinstitut, Düsseldorf, Germany; about 100 ng proteasome, depending on the proteasome preparation) and 47 μl buffer-Ca (5 mM CaCl2, 20 mM Trs/HCl (Tris(hydroxymethyl)-amino-methane hydrochloride) pH 8.0). 3 pd of a 2.67 mM solution of Suc-LLVY-AMC (Bachem, Switzerland) in DMSO (80 μM final concentration in the well) and 47 μl buffer-Ca are mixed and added. The resulting mixture is incubated for 3-24 h at 37° C. If desired, proteolysis of the substrate can be stopped by addition of 50 μl stop solution (100 mM monochloroacetic acid, 130 mM NaOH, 100 mM acetic acid, pH=4.3). The fluorescence is monitored with a FLUOROSKAN ASCENT™ microtiter plate reader.
To each measure series two control experiments have to be carried out • 1.) 0% value: 2 μl DMSO are used in the above described assay instead of 2 μl of a 1 mM solution of a test compound in DMSO and 48 μl buffer-Ca instead of a mixture of 47 μl buffer-Ca and 1 μl purified proteasome. • 2.) 100% value: in the above described assay 2 μl DMSO are used instead of 2 μl of a 1 mM solution of the test compound in DMSO. Calculation [formula]
The IC50 value is defined as that concentration of a compound at which the remaining activity is 50%.

SMILES | IC50 [nM]
COc1ccc(CN[C@@H](C(=O)N[C@H](C(=O)NCc2ccc(OC)cc2O)C(C)C)[C@@H](O)[C@H](Cc2ccccc2)NC(=O)[C@@H](NC(=O)OCc2ccccc2)C(C)(C)C)cc1 [Example 1] | 900
COc1ccc(CNC(C(=O)NC(C(=O)NCc2ccc(OC)cc2O)C(C)C)C(O)C(Cc2ccccc2)NC(=O)C(NC(=O)OCc2ccccc2)C(C)C)cc1 (centres unmarked) [Example 8, {1-[1-Benzyl-2-hydroxy-3-[1-(2-hydroxy-4-methoxy-benzylcarbamoyl)-2-methyl-propylcarbamoyl]-3-(4-methoxy-benzylamino)-propylcarbamoyl]-2-methyl-propyl}-carbamic acid benzyl ester] | 3300
COc1ccc(CNC(C(=O)NC(C(=O)NCc2ccc(OC)cc2O)C(C)C)C(O)C(Cc2ccccc2)NC(=O)C(NC(=O)Cc2cccc3ccccc23)C(C)(C)C)cc1 (centres unmarked) [Example 10, 4-[3,3-Dimethyl-2-(2-naphthalen-1-yl-acetylamino)-butyrylamino]-3-hydroxy-2-(4-methoxy-benzylamino)-5-phenyl-pentanoic acid [1-(2-hydroxy-4-methoxy-benzyl-carbamoyl)-2-methyl-propyl]-amide] | 100
COc1ccc(CNC(C(=O)NC(C(=O)NCc2ccc(OC)cc2O)C(C)C)C(O)C(Cc2ccccc2)NC(=O)C(NC(=O)OC(C)(C)C)C(C)(C)C)cc1 (centres unmarked) [Example 3, {1-[1-Benzyl-2-hydroxy-3-[1-(2-hydroxy-4-methoxy-benzylcarbamoyl)-2-methyl-propylcarbamoyl]-3-(4-methoxy-benzylamino)-propylcarbamoyl]-2,2-dimethyl-propyl}-carbamic acid tert-butyl ester] | 26000
COc1ccc(CNC(C(=O)NC(C(=O)NCc2ccc(OC)cc2O)C(C)C)C(O)C(Cc2ccccc2)NC(=O)CNC(=O)OCc2ccccc2)cc1 (centres unmarked) [Example 7, {[1-Benzyl-2-hydroxy-3-[1-(2-hydroxy-4-methoxy-benzylcarbamoyl)-2-methyl-propylcarbamoyl]-3-(4-methoxy-benzylamino)-propylcarbamoyl]-methyl}-carbamic acid benzyl ester] | 9000
COC(=O)CCC(NC(=O)C(NCc1ccc(OC)cc1)C(O)C(Cc1ccccc1)NC(=O)C(NC(=O)OCc1ccccc1)C(C)C)C(=O)NCc1ccc(OC)cc1O (centres unmarked) [Example 2, 4-[4-(2-Benzyloxycarbonylamino-3-methyl-butyrylamino)-3-hydroxy-2-(4-methoxy-benzylamino)-5-phenyl-pentanoylamino]-4-(2-hydroxy-4-methoxy-benzyl-carbomoyl)-butyric acid methyl ester] | 400
COc1ccc(CNC(C(=O)NC(C(=O)NCc2ccc(OC)cc2O)C(C)C)C(O)C(Cc2ccccc2)NC(=O)C(NC(=O)CCc2cccc(N)c2)C(C)(C)C)cc1 (centres unmarked) [Example 12, 4-{2-[3-(3-Amino-phenyl)-propionylamino]-3,3-dimethyl-butyrylamino}-3-hydroxy-2-(4-methoxy-benzylamino)-5-phenyl-pentanoic acid [1-(2-hydroxy-4-methoxy-benzylcarbamoyl)-2-methyl-propyl]-amide] | 600
COc1ccc(CNC(C(=O)NC(C(=O)NCc2ccc(OC)cc2O)C(C)C)C(O)C(Cc2ccccc2)NC(=O)C(NC(=O)OCc2cccc(N)c2)C(C)(C)C)cc1 (centres unmarked) [Example 13, {1-[1-Benzyl-2-hydroxy-3-[1-(2-hydroxy-4-methoxy-benzylcarbamoyl)-2-meth-propylcarbamoyl]-3-(4-methoxy-benzylamino)-propylcarbamoyl]-2,2-dimethyl-propyl}-carbamic acid 3-amino-benzyl ester] | 600

More lines, in order of falling IC50, values ahead:

IC50 [nM] | SMILES
5200 | COc1ccc(CNC(C(=O)NC(C(=O)NCc2ccc(OC)cc2O)C(C)C)C(O)C(Cc2ccccc2)NC(=O)C(NC(=O)OCc2ccc3ccccc3c2)C(C)(C)C)cc1 (centres unmarked) [Example 5, {1-[1-Benzyl-2-hydroxy-3-[1-(2-hydroxy-4-methoxy-benzylcarbamoyl)-2-methyl-propylcarbamoyl]-3-(4-methoxy-benzylamino)-propylcarbamoyl]-2,2-dimethyl-propyl}-carbamic acid naphthalen-2-ylmethyl ester]
2200 | COc1ccc(CNC(C(=O)NC(C(=O)NCc2ccc(OC)cc2O)C(C)C)C(O)C(Cc2ccccc2)NC(=O)C(NC(=O)OCc2ccncc2)C(C)(C)C)cc1 (centres unmarked) [Example 6, {1-[1-Benzyl-2-hydroxy-3-[1-(2-hydroxy-4-methoxy-benzylcarbamoyl)-2-methyl-propylcarbamoyl]-3-(4-methoxy-benzylamino)-propylcarbamoyl]-2,2-dimethyl-propyl}-carbamic acid pyridin-4-ylmethyl ester]
2000 | COc1ccc(CNC(C(=O)NC(C(=O)NCc2ccc(OC)cc2O)C(C)C)C(O)C(Cc2ccccc2)NC(=O)C(NC(=O)OCc2cccc3ccccc23)C(C)(C)C)cc1 (centres unmarked) [Example 4, {1-[1-Benzyl-2-hydroxy-3-[1-(2-hydroxy-4-methoxy-benzyl-carbamoyl)-2-methyl-propylcarbamoyl]-3-(4-methoxy-benzylamino)-propylcarbamoyl]-2,2-dimethyl-propyl}-carbamic acid naphthalen-1-ylmethyl ester]
1100 | COc1ccc(CNC(C(=O)NC(C(=O)NCc2ccc(OC)cc2O)C(C)C)C(O)C(Cc2ccccc2)NC(=O)C(NC(=O)OCc2cc(C)cc(C)c2)C(C)(C)C)cc1 (centres unmarked) [Example 14, {1-[1-Benzyl-2-hydroxy-3-[1-(2-hydroxy-4-methoxy-benzyl-carbamoyl)-2-methyl-propylcarbamoyl]-3-(4-methoxy-benzylamino)-propylcarbamoyl]-2,2-dimethyl-propyl}-carbamic acid 3,5-dimethyl-benzyl ester]
1000 | COc1ccc(CN[C@@H](C(=O)N[C@H](C(=O)NCc2ccc(OC)cc2O)C(C)C)[C@@H](O)[C@H](Cc2ccccc2)NC(=O)[C@@H](NC(=O)OCC2CCCCC2)C(C)(C)C)cc1 [Example 15, {(S)-1-[(1S,2S,3R)-1-Benzyl-2-hydroxy-3-[(S)-1-(2-hydroxy-4-methoxy-benzylcarbamoyl)-2-methyl-propylcarbamoyl]-3-(4-methoxy-benzylamino)-propylcarbamoyl]-2,2-dimethyl-propyl}-carbamic acid cyclohexylmethyl ester]
500 | COc1ccc(CNC(C(=O)NC(C(=O)NCc2ccc(OC)cc2O)C(C)C)C(O)C(Cc2ccccc2)NC(=O)C(NC(=O)OCc2cccc(C)c2)C(C)(C)C)cc1 (centres unmarked) [Example 11, {1-[1-Benzyl-2-hydroxy-3-[1-(2-hydroxy-4-methoxy-benzylcarbamoyl)-2-methyl-propylcarbamoyl]-3-(4-methoxy-benzylamino)-propylcarbamoyl]-2,2-dimethyl-propyl}-carbamic acid 3-methylbenzyl ester]
